One compound from patent US8168645B2, “Arylsulfonamide compounds” (Genentech, Inc., priority 2006, dated 2012) can be followed below.

In general, EC50 refers to the concentration that produces a half-maximal response. Lower therefore signals an effect from little substance. As usually defined, the IC50 is the concentration at which inhibition is half-maximal. Higher therefore signals lower potency.

Experiment [1] concerns SCLC cell line NCI-H1963. The experiment in a line: CellTitre-Glow luminescent cytotoxicity assay, NCI-H1963. Type of experiment: cell-based. The settings on record: Homo sapiens; NCI-H1963 cells, 48 hr incubation. As to the method: (§1) • 1. SCLC cell lines NCI-H889, NCI-H1963, and NCI-H146 were purchased from American Type Culture Collection. Cells were maintained in RPMI 1640 (Invitrogen Corp., Grand Island, N.Y.) supplemented with 10% fetal bovine serum (FBS, Invitrogen), 1% sodium pyruvate, 25 mM HEPES, 4.5 g/L glucose and 1% penicillin/streptomycin (Sigma) in a humidified chamber at 37° C. containing 5% CO2. • 2. cells were grown as suspension aggregates in a T162 flask with 25 ml medium and kept at concentration of 1 million/mL. Test Compound Stocks: • 1. test compounds were prepared as 10 mM stocks in DMSO and stored at −20° C. Test Compound Serial Dilutions: • 1. prewarmed medium to 37° C. • 2. thawed compounds to room temperature. • 3. determined what will be the highest concentration to be tested. (i.e. 10 μM). • 4. prepared a 2× stock in culture medium of the first dose (i.e. 2×10 μM=20 μM) in an Eppendorf tube (i.e. 4 μl of 5 mM stock into 1000 μl=20 μM). • 5. inverted tube several times to mix. […] Columns 1-10 comprised the serial test compound treatments, column 11 was the untreated control and column 12 was the ‘no cell’ control for determining the background. • 1. in a 96 well plate was added 50 μl medium/well in columns 2 thru 11 and 100 μl was added to column 12. • 2. in column 1 was added 100 μl of 2× compound. • 3. made serial dilutions by transferring 50 μl to column 2, and so on up to column 10. After adding 50 μl to column 10 and mixing, discarded 50 μl. • 4. stored plates at 37° C. until ready to add cells. Cell Preparation • 1. Cell were washed one time in the culture medium and prepared as a suspension. • a. cell were first spun down to remove the medium and then ˜1 ml 0.25% trypsin was added and gently mixed and incubated for no more than three minutes at room temperature. • b. ˜10 ml of the medium was added and the cells were gently pipetted several times. • c. cells were then counted and spun down to the volume necessary for the total cell number needed, then resuspended in the medium to 200 cells/μl concentration (50,000 cells/well). • 2. […]

Experiment [2] concerns mouse embryo fibroblasts (MEFs): wild type, Bax/Bak double knockout, Noxa-expressing, Bad-expressing. The experiment is described as follows: Cell viability assay on mouse embryo fibroblasts (propidium iodide uptake). It counts as cell-based. The settings on record: propidium iodide uptake after 24 hours, FIG. 1A/1B. How it is done:
FIG. 1 graphically depicts the effect of Compound 1 (FIG. 1A) and Etoposide (FIG. 1B), at increasing concentrations, on the % viability of certain mouse embryo fibroblast (MEF) cells as assessed by propidium iodide uptake after 24 hours. Noxa and Bad were introduced by retrovirally infecting the cells with pMIG retroviruses as described by Chen et al., 2005.
The efficacy of the compounds of the present invention can also be determined in cell based killing assays using a variety of cell lines and mouse tumor models. For example, their activity on cell viability can be assessed on a panel of cultured tumorigenic and non-tumorigenic cell lines, as well as primary mouse or human cell populations, e.g. lymphocytes. For these assays, 5,000-20,000 cells are cultured at 37° C. and 10% CO2 in appropriate growth media, eg: 100 μL Dulbecco's Modified Eagle's medium supplemented with 10% foetal calf serum, asparaginase and 2-mercaptoethanol in the case of pre-B Eμ-Myc mouse tumors in 96 well plates. […] Cell viability is determined by the ability of the cells to exclude propidium iodide (10 μg/mL by immunofluorescence analysis of emission wavelengths of 660-675 nm on a flow cytometer (BD FACScan). Alternatively, a high throughput calorimetric assay such as the Cell Titre 96 could be used. Aqueous Non-Radioactive Cell Proliferation Assay (Promega) may be used. Cell death by apoptosis is confirmed by pre-incubation of the cells with 50 μM of a caspase inhibitor such as zVAD-fmk.
Neutralisation of both Bcl-xL and Mcl-1 anti-apoptotic proteins in normal cells is required before a cell undergoes apoptosis via the downstream Bax/Bak pathway [Chen et al., 2005; Willis et al., 2005]. A compound that only targets Bcl-xL should not affect normal cells, but could kill certain cancer cells if they rely more on Bcl-xL and less on Mcl-1 for survival. To mirror this, compound 1 was tested for its effect on survival of wild type (wt) mouse embryo fibroblasts (MEFs), Bax/Bak double knockout (BB DKO) MEFs, MEFs that expressed Noxa, and MEFs that expressed Bad. Noxa specifically neutralizes Mcl-1.

For experiment [3], the system named is SCLC cell line NCI-H889. The experiment is described as follows: CellTitre-Glow luminescent cytotoxicity assay, NCI-H889. It counts as cell-based. The settings on record: Homo sapiens; NCI-H889 cells, 48 hr incubation. As to the method:
as §1

The target of experiment [4] is GST tagged BCl-xL ΔC25 protein (Homo sapiens, UniProt Q07817). The experiment is described as follows: Alphascreen competition binding assay, GST tagged Bcl-xL vs biotinylated Bim BH3-26 peptide. The settings on record: competition with Bim BH3-26 peptide; unit inferred. From the text: (§2) Measurement of competition of compounds of the invention with Bim26-mer for a Bcl-2 homologue binding site.
(§3) Alphascreen (Amplified Luminescent Proximity Homogenous Assay) is a bead based technology which measures the interaction between molecules. The assay consists of two hydrogel coated beads which, when bought into close proximity by a binding interaction, allow the transfer of singlet oxygen from a donor bead to an acceptor bead.
(§4) Upon binding and excitation with laser light at 680 nm, a photosensitizer in the donor bead converts ambient oxygen to a more excited singlet state. This singlet oxygen then diffuses across to react with a chemiluminescer in the acceptor bead. Fluorophores within the same bead are activated resulting in the emission of light at 580-620 nm.
(§5) Screening of the compounds of the invention was performed using the Alphascreen GST (glutathione s-transferase) detection kit system. Test compounds were titrated into the assay which consisted of GST tagged Bclw ΔC29 protein (0.05 nM Final concentration) and Biotinylated Bim BH3-26 peptide, Biotin-[…] (3.0 nM Final concentration). For the GST tagged BCl-xL assay, GST tagged BCl-xL ΔC25 protein (0.6 nM Final concentration) and Biotinylated Bim BH3-26 peptide, Biotin-[…] (5.0 nM final concentration) were used. To this reaction mix anti-GST coated acceptor beads and Streptavidin coated donor beads, both at 15 μg/ml Final concentration, were added and the assay mixture incubated for 4 hours at room temperature before reading. Similarly when the Bcl-2 protein was Mcl-1, GST tagged Mcl-1 protein (0.4 nM Final concentration) and Biotinylated Bak BH3 peptide, Biotin-[…]-OH (4.0 nM Final concentration) were used.
(§6) • 1) prepare a 384 well with 4.75 μL of buffer and 0.25 μL of compounds (20 mM in DMSO) per well. • 2) Mix the binding partners, in one tube add Bcl-w, BCl-xL or Mcl-1 and the acceptor beads, in the second tube add Biotinylated BH3 peptide and the donor beads. • 3) Pre-incubate the two pairs of binding partners for 30 minutes. • 4) Add 1 μL of acceptor beads:Bcl-w, BCl-xL or Mcl-1 protein mix to each well. • 5) Seal the plate and incubate at room temperature for 30 minutes. • 6) Add 10 μL of donor bead:BH3 peptide mix to each well. • 7) Seal the plate, cover with foil and incubate for 4 hours.
(§7) Assay buffer contained 50 mM Hepes pH 7.4, 10 mM DTT, 100 mM NaCl, 0.05% Tween and 0.1 mg/ml casein. Bead dilution buffer contained 50 mM Tris, pH 7.5, 0.01% Tween and 0.1 mg/ml casein. The final DMSO concentration in the assay was 0.5%. Assays were performed in 384 well white Optiplates and analyzed on the PerkinElmer Fusion alpha plate reader (Ex680, Em520-620 nM).
(§8) The GST Alphascreen detection kit and Optiplates were purchased from PerkinElmer.

Experiment [5] concerns SCLC cell line NCI-H146. The experiment in a line: CellTitre-Glow luminescent cytotoxicity assay, NCI-H146. It counts as cell-based. The settings on record: Homo sapiens; NCI-H146 cells, 48 hr incubation. How it is done: as §1
In experiment [6] the target is GST tagged Mcl-1 protein (Homo sapiens, UniProt Q07820). The experiment is described as follows: Alphascreen competition binding assay, GST tagged Mcl-1 vs biotinylated Bak BH3 peptide. The settings on record: competition with Bak BH3 peptide; unit inferred.
From the text: as §2, §3, §4, §5, §6, §7, §8
(In Alpha technology, singlet oxygen from a donor bead excites a nearby acceptor bead.)

Sequence of GST tagged Mcl-1 protein (Q07820 whole entry): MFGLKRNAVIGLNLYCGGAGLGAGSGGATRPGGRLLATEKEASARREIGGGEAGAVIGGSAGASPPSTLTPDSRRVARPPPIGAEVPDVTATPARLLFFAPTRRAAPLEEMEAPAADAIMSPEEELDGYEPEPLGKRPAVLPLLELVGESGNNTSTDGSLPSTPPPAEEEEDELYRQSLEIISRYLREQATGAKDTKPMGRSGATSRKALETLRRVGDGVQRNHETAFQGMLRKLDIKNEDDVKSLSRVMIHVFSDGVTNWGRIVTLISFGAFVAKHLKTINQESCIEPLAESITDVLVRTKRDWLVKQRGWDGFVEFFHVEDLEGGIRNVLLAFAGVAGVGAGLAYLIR
Sequence of GST tagged BCl-xL ΔC25 protein (Q07817 1-208 limits assumed): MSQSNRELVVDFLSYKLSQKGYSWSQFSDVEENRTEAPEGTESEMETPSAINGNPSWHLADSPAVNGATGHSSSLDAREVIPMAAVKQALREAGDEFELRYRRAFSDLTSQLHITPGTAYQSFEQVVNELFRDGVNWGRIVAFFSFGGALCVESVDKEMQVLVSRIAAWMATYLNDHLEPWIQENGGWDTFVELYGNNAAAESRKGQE

For the compound `CN(C)CC[C@H](CSc1ccccc1)Nc1ccc(S(=O)(=O)Nc2ncnc3cc(N4CCN(Cc5ccccc5-c5ccc(Cl)cc5)CC4)ccc23)cc1[N+](=O)[O-]` [Compound 1, N-{7-[4-(4′-Chloro-biphenyl-2-ylmethyl)-piperazin-1-yl]-quinazolin-4-yl}-4-((R)-3-dimethylamino-1-phenylsulfanylmethyl-propylamino)-3-nitro-benzenesulfonamide], the EC50 in experiment [1] was 0.17 µM; in experiment [3] it was 0.21 µM; in experiment [5], 0.61 µM. Further, the “Selectivity of killing of Noxa-expressing MEFs versus MEFs where both Bcl-xL and Mcl-1 are protective (% viability)” value in experiment [2] was “much more sensitive to killing”. Besides, the IC50 in experiment [4] was 7 nM; in experiment [6], 9000 nM.
